In data set [1] the test system is Meloidogyne spp. (Root-knot nematode). Nature of the data set: Meloidogyne spp. (Root-knot nematode) contact activity, preventive, pouch test (Biological Screen Nem 1). The following applies: cucumber cv. Toshka, test solutions at 200 ppm, 3000 eggs, assessed after twelve days, cis vs trans isomers. The data set is classed as in vivo. On the procedure: Meloidogyne spp. (Root-knot nematode) contact activity, preventive. Pouch test. Filter papers (9 cm×4.5 cm) with a small pocket were placed into plastic pouches (12 cm×6 cm). One cucumber cv. Toshka seed was placed in the centre of the filter paper pocket of all the pouches needed for a test. The cucumber seeds in the pouches were treated with test solutions at 200 ppm by pipetting the solution directly over the cucumber seed in the filter paper pocket in the pouch. Prior to application, the compound solution was prepared at twice the concentration required and the egg suspension is prepared with FORL nutrient solution with 3000 eggs/0.5 ml. After applying all the treatments, 3000 eggs (in 0.5 ml of FORL nutrient solution) were pipetted into the pouches. The pouches were incubated in a moist chamber for twelve days and watered regularly to maintain good filter paper moisture essential for the growing cucumber root system. After this period, the filter paper containing the germinated cucumber seedling was removed from the plastic pouch to assess the number of galls caused by Meloidogyne spp. per root system. Biological Screen Nem 1. Meloidogyne spp. (Root-knot nematode) contact activity, preventive. Pouch test. Values are given in % galling.

The next data set deals with M. incognita. Briefly: Meloidogyne spp. (Root-knot nematode) contact activity, preventive, drench test (Biological Screen Nem 2). The data set is classed as in vivo. To be noted: cucumber cv. Toshka in pots, WP10 suspension at 20 ppm, 3000 eggs of M. incognita, harvested after fourteen days, Zeck's gall index, cis vs trans isomers. On the procedure:
Meloidogyne spp. (Root-knot nematode) contact activity, preventive, drench test. Cucumber cv. Toshka seeds were shown directly into pots filled with a sandy substrate. Six days later pots were each treated with 5 ml of a WP10 suspension of the test compound at 20 ppm. Hereafter pots were inoculated with 3000 eggs of M. incognita. The trial was harvested fourteen days after trial application and inoculation. Root galling was assessed according to Zeck's gall index (Zeck, 1971). Biological Screen Nem 2. Meloidogyne spp. (Root-knot nematode) contact activity, preventive, drench test. Values are given in % galling.

Values joined by “and” are separate entries in the source; they are usually repeats but may differ in a detail not shown here. Equal values may be shown once.

Turning to `O=C(N[C@@H]1C[C@@H]1c1ccc(Cl)cc1Cl)c1ccccc1C(F)(F)F` (racemic) [Compound 67-014], in data set [1], the “Nem 1 (% galling)” value is on record as 100%. Besides, the “Nem 2 (% galling)” value with M. incognita worked out at 98%.
For `O=C(N[C@@H]1C[C@@H]1c1ccc(C(F)(F)F)cc1)c1ccccc1C(F)(F)F` (racemic) [Compound 67-026] the same measures were 64% and 82%.
Take `C[C@H]1C(NC(=O)c2c(F)cccc2F)[C@H]1c1ccc(F)cc1` (mixture of isomers) [Compound 68.003, 2,6-difluoro-N-[(1R,2R,3R)-2-(4-fluorophenyl)-3-methyl-cyclopropyl]benzamide]: the melting point (as a rule, the temperature, or range, at which the solid turns liquid) lay in the range of 90 to 96 °C.
On the same count and under the same terms, in the case of `C[C@H]1C(c2ccc(Cl)cc2)[C@@H]1NC(=O)c1ccccc1C(F)(F)F` (mixture of isomers) [Compound 68.008, N-[(1R,2R,3S)-2-(4-chlorophenyl)-3-methyl-cyclopropyl]-2-(trifluoromethyl)benzamide] it was 167 to 169 °C; in that of `C[C@]1(c2ccc(Cl)cc2)CC1NC(=O)c1c(F)cccc1F` (mixture of isomers) [Compound 68.009, N-[(1R,2R)-2-(4-chlorophenyl)-2-methyl-cyclopropyl]-2,6-difluoro-benzamide], 140 to 142 °C.
On the same count and under the same terms, in the case of `O=C(N[C@@H]1C[C@@H]1c1ccc(F)cc1)c1ccccc1C(F)(F)F` (relative stereo) [Compound 67-003, N-[cis-2-(4-Fluoro-Phenyl)-Cyclopropyl]-2-Trifluoromethyl-benzamide] it was 140 to 142 °C and 139 to 140 °C; in that of `O=C(N[C@@H]1C[C@@H]1c1ccc(OC(F)F)cc1)c1ccccc1C(F)(F)F` (relative stereo) [Compound 67-011, N-[cis-2-(4-difluoromethoxy-phenyl)-cyclopropyl]-2-trifluoromethyl-benzamide], 133 to 136 °C.
Still for that read-out and setting: in the case of `Cn1cc(C(=O)N[C@@H]2C[C@@H]2c2ccc(F)cc2)c(C(F)F)n1` (relative stereo) [Compound 67.002, 3-difluoromethyl-1-methyl-1H-pyrazole-4-carboxylic acid [(cis)-2-(4-fluoro-phenyl)-cyclopropyl]-amide] it was 141 to 143 °C.
Consider `O=C(N[C@@H]1CC1c1ccc(Cl)cc1Cl)c1c(F)cccc1F` (stereo partly shown) [Compound 67-016], for which the melting point lay within 179 to 182 °C. For the same compound, in data set [1], the “Nem 1 (% galling)” value is listed as 81%. For the same compound, the “Nem 2 (% galling)” value with M. incognita is reported as 96%.

For the origin of these results see patent publication US9408392B2, “Compounds” (SYNGENTA PARTICIPATIONS AG, priority 2012, dated 2016).
